This assay has as its system Cocaine-targeting aptamer (DNA, aptamer) AGACAAGGAAAATCCTTCAATGAAGTGGGTCG
As to the kind of experiment: square wave voltammetry, aptamer on gold microelectrode. As to conditions: PBS; MCH-passivated; non-coated and PSB-coated sensors same calibration, modified Langmuir fit, constant not given.

As to `COC(=O)[C@H]1[C@@H](OC(=O)c2ccccc2)C[C@@H]2CC[C@H]1N2C`, the binding result is “yes”.
